# Test system: late watergrass
# Experiment: Test Example 1: herbicidal activity, application before weed generation under submerged conditions (Table 16, symbol A)
# Format: in vivo, late watergrass (Echinochloa oryzicola)
# Details: 320 g/ha applied herbicide
# Outline: (§1)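 Emulsion formulation, water-diluted to set dose, was put onto the flooded surface (4 cm depth, alluvial soil) the same day weeds were sown and 2.5-leaf rice transplanted. After 3 weeks at 25-30 °C under glass, each species was rated 0 (≤5% kill) to 5 (≥90% kill).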
row,SMILES,Herbicidal effect on A: late watergrass (grade 0-5)
1,CCCOc1ccc(-c2sc3ccc(F)cc3c2-c2c(OC(=O)CCC)c(C)nn(C)c2=O)cc1 [2-033],4 (Herbicidal rate of 70% or more and less than 90%)
2,CCCC(=O)Oc1c(C)nn(C)c(=O)c1-c1c(-c2ccc(OC(C)C)cc2)sc2ccc(F)cc12 [2-035],5 (Herbicidal rate of 90% or more (almost completely withered))
3,CCCCOc1ccc(-c2sc3ccc(F)cc3c2-c2c(OC(=O)CCC)c(C)nn(C)c2=O)cc1 [2-037],3 (Herbicidal rate of 40% or more and less than 70%)

# Test system: Japanese bulrush
# Experiment: Test Example 1: herbicidal activity, application before weed generation under submerged conditions (Table 16, symbol B)
# Format: in vivo, Japanese bulrush (Schoenoplectus juncoides)
# Details: 320 g/ha applied herbicide
# Outline: as §1
row,SMILES,Herbicidal effect on B: Japanese bulrush (grade 0-5)
1,CCCOc1ccc(-c2sc3ccc(F)cc3c2-c2c(OC(=O)CCC)c(C)nn(C)c2=O)cc1 [2-033],5 (Herbicidal rate of 90% or more (almost completely withered))
2,CCCC(=O)Oc1c(C)nn(C)c(=O)c1-c1c(-c2ccc(OC(C)C)cc2)sc2ccc(F)cc12 [2-035],4 (Herbicidal rate of 70% or more and less than 90%)
3,CCCCOc1ccc(-c2sc3ccc(F)cc3c2-c2c(OC(=O)CCC)c(C)nn(C)c2=O)cc1 [2-037],2 (Herbicidal rate of 20% or more and less than 40%)

# Test system: late watergrass
# Experiment: Test Example 2: herbicidal activity, application during weed generation under submerged conditions (Table 17, symbol A)
# Format: in vivo, late watergrass (Echinochloa oryzicola)
# Details: AAH 320 g/ha; application during weed generation, submerged conditions
# Outline: (§2)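 3-wk visual-criteria score after one water-surface dose. Emulsion formulation, water-diluted to set rate; applied at 1–2 leaf stage; alluvial soil, 4 cm standing water; seeds co-sown; greenhouse 25–30° C.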
row,SMILES,"herbicidal effect rating, A: late watergrass"
1,CCCOc1ccc(-c2sc3ccc(F)cc3c2-c2c(OC(=O)CCC)c(C)nn(C)c2=O)cc1 [2-033],1 (Herbicidal rate of 5% or more and less than 20%)
2,CCCC(=O)Oc1c(C)nn(C)c(=O)c1-c1c(-c2ccc(OC(C)C)cc2)sc2ccc(F)cc12 [2-035],1 (Herbicidal rate of 5% or more and less than 20%)
3,CCCCOc1ccc(-c2sc3ccc(F)cc3c2-c2c(OC(=O)CCC)c(C)nn(C)c2=O)cc1 [2-037],0 (Herbicidal rate of 5% or less (almost no effect))

# Test system: oval-leafed pondweed
# Experiment: Test Example 2: herbicidal activity, application during weed generation under submerged conditions (Table 17, symbol C)
# Format: in vivo, oval-leafed pondweed (Monochoria vaginalis)
# Details: AAH 320 g/ha; application during weed generation, submerged conditions
# Outline: as §2
row,SMILES,"herbicidal effect rating, C: oval-leafed pondweed"
1,CCCOc1ccc(-c2sc3ccc(F)cc3c2-c2c(OC(=O)CCC)c(C)nn(C)c2=O)cc1 [2-033],4 (Herbicidal rate of 70% or more and less than 90%)
2,CCCC(=O)Oc1c(C)nn(C)c(=O)c1-c1c(-c2ccc(OC(C)C)cc2)sc2ccc(F)cc12 [2-035],4 (Herbicidal rate of 70% or more and less than 90%)
3,CCCCOc1ccc(-c2sc3ccc(F)cc3c2-c2c(OC(=O)CCC)c(C)nn(C)c2=O)cc1 [2-037],3 (Herbicidal rate of 40% or more and less than 70%)

# Test system: barnyard grass
# Experiment: Test Example 3: herbicidal effect by foliage application, Wagner pot (Table 18, symbol H)
# Format: in vivo, barnyard grass (Echinochloa crus-galli)
# Details: 320 g/ha
# Outline: (§3)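 Plants were sown in alluvial soil held under 0.1–0.5 cm standing water and grown 14 days in a greenhouse at 25–30 °C. An emulsifiable formulation, water-diluted to the set dose, was then sprayed onto the foliage, and effects were scored three weeks later using previously defined criteria.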
row,SMILES,"herbicidal effect on H (barnyard grass), rating 0-5"
1,CCCOc1ccc(-c2sc3ccc(F)cc3c2-c2c(OC(=O)CCC)c(C)nn(C)c2=O)cc1 [2-033],5 (Herbicidal rate of 90% or more (almost completely withered))
2,CCCC(=O)Oc1c(C)nn(C)c(=O)c1-c1c(-c2ccc(OC(C)C)cc2)sc2ccc(F)cc12 [2-035],5 (Herbicidal rate of 90% or more (almost completely withered))
3,CCCCOc1ccc(-c2sc3ccc(F)cc3c2-c2c(OC(=O)CCC)c(C)nn(C)c2=O)cc1 [2-037],4 (Herbicidal rate of 70% or more and less than 90%)

# Test system: Chinese sprangletop
# Experiment: Test Example 3: herbicidal effect by foliage application, Wagner pot (Table 18, symbol D)
# Format: in vivo, chinese sprangletop (Leptochloa chinensis)
# Details: 320 g/ha
# Outline: as §3
row,SMILES,"herbicidal effect on D (Chinese sprangletop), rating 0-5"
1,CCCOc1ccc(-c2sc3ccc(F)cc3c2-c2c(OC(=O)CCC)c(C)nn(C)c2=O)cc1 [2-033],1 (Herbicidal rate of 5% or more and less than 20%)
2,CCCC(=O)Oc1c(C)nn(C)c(=O)c1-c1c(-c2ccc(OC(C)C)cc2)sc2ccc(F)cc12 [2-035],0 (Herbicidal rate of 5% or less (almost no effect))
3,CCCCOc1ccc(-c2sc3ccc(F)cc3c2-c2c(OC(=O)CCC)c(C)nn(C)c2=O)cc1 [2-037],2 (Herbicidal rate of 20% or more and less than 40%)

# Test system: rice flat sedge
# Experiment: Test Example 3: herbicidal effect by foliage application, Wagner pot (Table 18, symbol E)
# Format: in vivo, rice flat sedge (Cyperus iria)
# Details: 320 g/ha
# Outline: as §3
row,SMILES,"herbicidal effect on E (rice flat sedge), rating 0-5"
1,CCCOc1ccc(-c2sc3ccc(F)cc3c2-c2c(OC(=O)CCC)c(C)nn(C)c2=O)cc1 [2-033],5 (Herbicidal rate of 90% or more (almost completely withered))
2,CCCC(=O)Oc1c(C)nn(C)c(=O)c1-c1c(-c2ccc(OC(C)C)cc2)sc2ccc(F)cc12 [2-035],5 (Herbicidal rate of 90% or more (almost completely withered))
3,CCCCOc1ccc(-c2sc3ccc(F)cc3c2-c2c(OC(=O)CCC)c(C)nn(C)c2=O)cc1 [2-037],4 (Herbicidal rate of 70% or more and less than 90%)

# Test system: Italian ryegrass
# Experiment: Test Example 4: herbicidal effect by soil treatment (Table 19, symbol K)
# Format: in vivo, Italian ryegrass (Lolium multiflorum)
# Details: 320 g/ha
# Outline: (§4)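 Soil-surface application: an emulsion agent diluted with water to the predetermined dose is sprayed uniformly over seeds lying under roughly 1.5 cm of sterilized diluvial soil. Boxes stay in a greenhouse at 25° C. to 30° C. Three weeks later, each species is graded on previously defined criteria.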
row,SMILES,"herbicidal effect rating, K: Italian ryegrass"
1,CCCOc1ccc(-c2sc3ccc(F)cc3c2-c2c(OC(=O)CCC)c(C)nn(C)c2=O)cc1 [2-033],0 (Herbicidal rate of 5% or less (almost no effect))
2,CCCC(=O)Oc1c(C)nn(C)c(=O)c1-c1c(-c2ccc(OC(C)C)cc2)sc2ccc(F)cc12 [2-035],0 (Herbicidal rate of 5% or less (almost no effect))
3,CCCCOc1ccc(-c2sc3ccc(F)cc3c2-c2c(OC(=O)CCC)c(C)nn(C)c2=O)cc1 [2-037],0 (Herbicidal rate of 5% or less (almost no effect))

# Test system: windgrass
# Experiment: Test Example 4: herbicidal effect by soil treatment (Table 19, symbol L)
# Format: in vivo, windgrass (Apera spica-venti)
# Details: 320 g/ha
# Outline: as §4
row,SMILES,"herbicidal effect rating, L: windgrass"
1,CCCOc1ccc(-c2sc3ccc(F)cc3c2-c2c(OC(=O)CCC)c(C)nn(C)c2=O)cc1 [2-033],0 (Herbicidal rate of 5% or less (almost no effect))
2,CCCC(=O)Oc1c(C)nn(C)c(=O)c1-c1c(-c2ccc(OC(C)C)cc2)sc2ccc(F)cc12 [2-035],0 (Herbicidal rate of 5% or less (almost no effect))
3,CCCCOc1ccc(-c2sc3ccc(F)cc3c2-c2c(OC(=O)CCC)c(C)nn(C)c2=O)cc1 [2-037],0 (Herbicidal rate of 5% or less (almost no effect))

# Test system: redroot pigweed
# Experiment: Test Example 4: herbicidal effect by soil treatment (Table 19, symbol N)
# Format: in vivo, redroot pigweed (Amaranthus retroflexus)
# Details: 320 g/ha
# Outline: as §4
row,SMILES,"herbicidal effect rating, N: redroot pigweed"
1,CCCOc1ccc(-c2sc3ccc(F)cc3c2-c2c(OC(=O)CCC)c(C)nn(C)c2=O)cc1 [2-033],5 (Herbicidal rate of 90% or more (almost completely withered))
2,CCCC(=O)Oc1c(C)nn(C)c(=O)c1-c1c(-c2ccc(OC(C)C)cc2)sc2ccc(F)cc12 [2-035],5 (Herbicidal rate of 90% or more (almost completely withered))
3,CCCCOc1ccc(-c2sc3ccc(F)cc3c2-c2c(OC(=O)CCC)c(C)nn(C)c2=O)cc1 [2-037],5 (Herbicidal rate of 90% or more (almost completely withered))

# Test system: green foxtail
# Experiment: Test Example 5: herbicidal effect by foliage application, plastic box (Table 20, symbol G)
# Format: in vivo, green foxtail (Setaria viridis)
# Details: foliage application, 320 g/ha, 3 weeks after application
# Outline: (§5)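 Sow seeds spot-wise in sterilized diluvial soil; cover with ~1.5 cm soil. Grow 14 days in greenhouse, 25° C. to 30° C. Spray foliage with emulsion diluted to predetermined amount. Rate effect after 3 weeks.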
row,SMILES,effect on green foxtail (G)
1,CCCOc1ccc(-c2sc3ccc(F)cc3c2-c2c(OC(=O)CCC)c(C)nn(C)c2=O)cc1 [2-033],5 (Herbicidal rate of 90% or more (almost completely withered))
2,CCCC(=O)Oc1c(C)nn(C)c(=O)c1-c1c(-c2ccc(OC(C)C)cc2)sc2ccc(F)cc12 [2-035],4 (Herbicidal rate of 70% or more and less than 90%)
3,CCCCOc1ccc(-c2sc3ccc(F)cc3c2-c2c(OC(=O)CCC)c(C)nn(C)c2=O)cc1 [2-037],3 (Herbicidal rate of 40% or more and less than 70%)

# Test system: barnyard grass
# Experiment: Test Example 5: herbicidal effect by foliage application, plastic box (Table 20, symbol H)
# Format: in vivo, barnyard grass (Echinochloa crus-galli)
# Details: foliage application, 320 g/ha, 3 weeks after application
# Outline: as §5
row,SMILES,effect on barnyard grass (H)
1,CCCOc1ccc(-c2sc3ccc(F)cc3c2-c2c(OC(=O)CCC)c(C)nn(C)c2=O)cc1 [2-033],5 (Herbicidal rate of 90% or more (almost completely withered))
2,CCCC(=O)Oc1c(C)nn(C)c(=O)c1-c1c(-c2ccc(OC(C)C)cc2)sc2ccc(F)cc12 [2-035],5 (Herbicidal rate of 90% or more (almost completely withered))
3,CCCCOc1ccc(-c2sc3ccc(F)cc3c2-c2c(OC(=O)CCC)c(C)nn(C)c2=O)cc1 [2-037],2 (Herbicidal rate of 20% or more and less than 40%)

# Test system: wild oat
# Experiment: Test Example 5: herbicidal effect by foliage application, plastic box (Table 20, symbol I)
# Format: in vivo, wild oat (Avena fatua)
# Details: foliage application, 320 g/ha, 3 weeks after application
# Outline: as §5
row,SMILES,effect on wild oat (I)
1,CCCOc1ccc(-c2sc3ccc(F)cc3c2-c2c(OC(=O)CCC)c(C)nn(C)c2=O)cc1 [2-033],0 (Herbicidal rate of 5% or less (almost no effect))
2,CCCC(=O)Oc1c(C)nn(C)c(=O)c1-c1c(-c2ccc(OC(C)C)cc2)sc2ccc(F)cc12 [2-035],0 (Herbicidal rate of 5% or less (almost no effect))
3,CCCCOc1ccc(-c2sc3ccc(F)cc3c2-c2c(OC(=O)CCC)c(C)nn(C)c2=O)cc1 [2-037],0 (Herbicidal rate of 5% or less (almost no effect))

# Test system: blackgrass
# Experiment: Test Example 5: herbicidal effect by foliage application, plastic box (Table 20, symbol J)
# Format: in vivo, blackgrass (Alopecurus myosuroides)
# Details: foliage application, 320 g/ha, 3 weeks after application
# Outline: as §5
row,SMILES,effect on blackgrass (J)
1,CCCOc1ccc(-c2sc3ccc(F)cc3c2-c2c(OC(=O)CCC)c(C)nn(C)c2=O)cc1 [2-033],3 (Herbicidal rate of 40% or more and less than 70%)
2,CCCC(=O)Oc1c(C)nn(C)c(=O)c1-c1c(-c2ccc(OC(C)C)cc2)sc2ccc(F)cc12 [2-035],3 (Herbicidal rate of 40% or more and less than 70%)
3,CCCCOc1ccc(-c2sc3ccc(F)cc3c2-c2c(OC(=O)CCC)c(C)nn(C)c2=O)cc1 [2-037],0 (Herbicidal rate of 5% or less (almost no effect))

# Test system: Italian ryegrass
# Experiment: Test Example 5: herbicidal effect by foliage application, plastic box (Table 20, symbol K)
# Format: in vivo, Italian ryegrass (Lolium multiflorum)
# Details: foliage application, 320 g/ha, 3 weeks after application
# Outline: as §5
row,SMILES,effect on Italian ryegrass (K)
1,CCCOc1ccc(-c2sc3ccc(F)cc3c2-c2c(OC(=O)CCC)c(C)nn(C)c2=O)cc1 [2-033],2 (Herbicidal rate of 20% or more and less than 40%)
2,CCCC(=O)Oc1c(C)nn(C)c(=O)c1-c1c(-c2ccc(OC(C)C)cc2)sc2ccc(F)cc12 [2-035],0 (Herbicidal rate of 5% or less (almost no effect))
3,CCCCOc1ccc(-c2sc3ccc(F)cc3c2-c2c(OC(=O)CCC)c(C)nn(C)c2=O)cc1 [2-037],0 (Herbicidal rate of 5% or less (almost no effect))

# Source: US20230085307A1, “PYRIDAZINONE COMPOUND AND HERBICIDE” (NISSAN CHEMICAL CORPORATION, priority 2019, published 2023)
